Data on 32 compounds can be found in paper PMC13223435, “Synthesis and Antiproliferative Activity against Melanoma Cells of New Heterocyclic Hybrids Based on Pyridine and Pyrimidine Scaffolds” (Current Medicinal Chemistry, 2025).

The IC50 is the concentration that inhibits the measured activity by half.

T1 sequence (P02554 whole entry): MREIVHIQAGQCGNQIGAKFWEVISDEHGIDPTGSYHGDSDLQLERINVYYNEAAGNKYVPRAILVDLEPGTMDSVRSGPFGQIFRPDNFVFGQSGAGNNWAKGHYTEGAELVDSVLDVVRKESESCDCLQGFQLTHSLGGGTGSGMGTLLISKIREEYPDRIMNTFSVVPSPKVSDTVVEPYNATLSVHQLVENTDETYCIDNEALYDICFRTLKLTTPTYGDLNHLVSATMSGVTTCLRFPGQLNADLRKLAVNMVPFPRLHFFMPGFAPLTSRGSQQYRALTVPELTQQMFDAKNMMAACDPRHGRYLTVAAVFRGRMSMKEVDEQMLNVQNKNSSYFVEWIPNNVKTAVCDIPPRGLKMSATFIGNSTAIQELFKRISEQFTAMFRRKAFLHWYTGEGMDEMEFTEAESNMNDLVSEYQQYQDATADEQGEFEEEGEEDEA
T1 sequence (P02550 whole entry): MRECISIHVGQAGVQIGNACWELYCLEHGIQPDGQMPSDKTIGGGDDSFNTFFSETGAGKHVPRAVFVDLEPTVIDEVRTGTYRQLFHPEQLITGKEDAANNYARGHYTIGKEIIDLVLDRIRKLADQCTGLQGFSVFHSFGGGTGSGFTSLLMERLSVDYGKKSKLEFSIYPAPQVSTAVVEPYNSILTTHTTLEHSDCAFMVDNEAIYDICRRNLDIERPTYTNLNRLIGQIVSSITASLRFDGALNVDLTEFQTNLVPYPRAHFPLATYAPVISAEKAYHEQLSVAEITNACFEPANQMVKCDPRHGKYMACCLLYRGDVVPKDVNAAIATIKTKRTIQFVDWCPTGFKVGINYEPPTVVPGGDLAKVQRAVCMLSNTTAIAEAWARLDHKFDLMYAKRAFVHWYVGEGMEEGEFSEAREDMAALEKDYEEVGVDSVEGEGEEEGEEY

The test system of the first assay is melanoma A375 cells. As to the kind of experiment: WST-1 antiproliferative assay. The class given is cell-based. The conditions noted are these: Homo sapiens, A-375; 10 µM, 48 h of treatment, A375; read-out: Cell proliferation (% control). The source says:
The A375 malignant melanoma cell line (ECACC 88113005, Salisbury, UK) was procured from the European Collection of Authenticated Cell Cultures (ECACC). The primary culture of human dermal fibroblasts (HDF) was derived from skin according to the protocol approved by the Ethical Committee of Pomeranian Medical University in Szczecin (KB-0012/02/18). The detailed protocol of fibroblast isolation, authentication, and cell culture conditions was previously described. Both cell lines were cultivated in a humidified incubator under conditions of 5% CO2 and a temperature of 37°C, using Dulbecco’s modified Eagle’s medium (DMEM) with 4500 mg/L glucose (Sigma-Aldrich Merck Group, St. Louis, MO, USA) enriched with 10% heat-inactivated fetal bovine serum (FBS, EURx, Gdańsk, Poland), 2 mM L-glutamine (Sigma-Aldrich Merck Group, St. Louis, MO, USA), and penicillin-streptomycin solution (Sigma-Aldrich Merck Group, St. Louis, MO, USA). Regular assessments for the presence of mycoplasma were conducted using the MycoAlert® Mycoplasma Detection Kit (Lonza, Rockland, ME, USA).
The evaluation of the antiproliferative activity of the compounds was performed using the Cell Proliferation Reagent WST-1 assay (Roche, Germany). This assay relies on the reduction of tetrazolium salt to formazan, with the final amount of formazan proportional to the number of viable cells. In our study, A375 cells (2×10^3) and HDF (3×10^3) were initially seeded into 96-well plates and cultured in a humidified atmosphere of 5% CO2 at 37°C. 24 hours later, the culture medium was replaced with a medium containing the tested compounds for a 48-hour incubation period at specified final concentrations. […] For control purposes, cells without the tested compounds, which contained only the vehicle (DMSO), were used. Additionally, a blank sample consisting of tested compounds in a medium (without cells) was included. After the 48-hour incubation period, the WST-1 reagent was introduced and allowed to incubate with the cells for 30 minutes. The absorbance was subsequently measured at 450 nm with background correction at 620 nm using a microplate reader (Infinite 200 Pro, Tecan, Männedorf, Switzerland). Cell viability was calculated according to the following formula: [(Atest–Ablank)/ (Acontrol − Ablank)] × 100%. These measurements were conducted in triplicate for at least three independent experiments.
In the screening step, 10 µM solutions of all 33 compounds were tested on A375 cells. […] Selected compounds (2c, 18e, 16b, 29) were tested at concentrations of 0.1, 1, 10, 50, and 100 µM. The IC50 values were determined using an online calculator (AAT Bioquest, Inc., Quest Graph™ IC50 Calculator (v.1). Retrieved from https://www.aatbio.com/tools/IC50-calculator-v1, accessed on: 2022, December 12).
For the compound `COc1cc(-c2cnc(=S)[nH]c2)cc(OC)c1OC` [Compound 1d], the activity at 10 µM is 99.2 ± 10.8%.
The same measure, in the same setting: for `COc1ccc(C2=CNC(=S)N(Cc3ccccc3)C2C#Cc2ccccc2)cc1` (stereo not shown) [Compound 2a] the value was 100 ± 6.85%; for `COc1ccc(C2=CNC(=S)N(C)C2C#Cc2ccsc2)cc1` (stereo not shown) [Compound 2b], 92.4 ± 2.51%.
On to `S=C1NC=C(c2ccccc2)C(C#Cc2ccsc2)N1Cc1ccccc1` (stereo not shown) [Compound 2c], for which the activity at 10 µM worked out at 44.8 ± 6.68%.
Same read-out and setting: for `COc1ccc(C2=CNC(=S)N(C)C2C#Cc2ccccn2)cc1` (stereo not shown) [Compound 2d] the value was 93.3 ± 16.6%.
Consider `COc1cc(C2=CNC(=S)NC2Cc2ccccc2)cc(OC)c1OC` (stereo not shown) [Compound 2e], for which the activity at 10 µM is 138 ± 19.5%.
The same measure, in the same setting: for `COc1cc(C2=CNC(=S)NC2c2cccs2)cc(OC)c1OC` (stereo not shown) [Compound 2f] the value was 127 ± 9.99%; for `COc1ccc(C#Cc2ccsc2)cn1` [Compound 4b], 111 ± 10.8%.
The same measure, in the same setting: for `O=c1ccc(C#Cc2cccs2)c[nH]1` [Compound 5a] the value was 114 ± 4.12%; for `O=c1ccc(C#Cc2ccsc2)c[nH]1` [Compound 5b], 113 ± 9.77%.
On the same count and under the same terms, for `S=C1CC(Cc2ccccc2)C(C#Cc2cccs2)=CN1` (stereo not shown) [Compound 6a] the value was 101 ± 9.41%.
Take `S=C1CC(Cc2ccccc2)C(C#Cc2ccsc2)=CN1` (stereo not shown) [Compound 6b]: the activity at 10 µM was determined as 101 ± 6.05%.
`O=c1ccc(-n2cc(-c3ccsc3)nn2)c[nH]1` [Compound 9a]: the activity at 10 µM turned out to be 114 ± 14.5%.
Turning to `O=C1CC(Cc2ccccc2)C(n2cc(-c3ccsc3)nn2)=CN1` (stereo not shown) [Compound 10a], the activity at 10 µM stood at 98.8 ± 12.6%.
`O=C1CC(Cc2ccccc2)C(n2cc(-c3ccccc3)nn2)=CN1` (stereo not shown) [Compound 10b]: the activity at 10 µM came out at 96.1 ± 4.11%.
Regarding `O=c1ccc(-c2csc3ccccc23)c[nH]1` [Compound 12a], the activity at 10 µM amounted to 106 ± 6.52%.
The same measure, in the same setting: for `O=c1ccc(-c2cccc3sccc23)c[nH]1` [Compound 12b] the value was 97.8 ± 6.41%.
On the same count and under the same terms, for `S=c1ccc(-c2csc3ccccc23)c[nH]1` [Compound 13a] the value was 100 ± 3.65%.
The same measure, in the same setting: for `S=c1ccc(-c2cccc3sccc23)c[nH]1` [Compound 13b] the value was 77.5 ± 13.1%.
`S=c1ccc(-c2cccs2)cn1Cc1ccc2c(c1)OCO2` [Compound 16a]: the activity at 10 µM came out at 99.1 ± 3.1%.
In the case of `S=C1CC=C(c2cccs2)C(Cc2ccccc2)N1CC1CC1` (stereo not shown) [Compound 17c], the activity at 10 µM is 117 ± 2.07%.
The same measure, in the same setting: for `S=C1CC=C(c2ccco2)C(Cc2ccccc2)N1CC1CC1` (stereo not shown) [Compound 17d] the value was 98.7 ± 1.41%.
Same read-out and setting: for `S=C1CC(Cc2ccccc2)C(c2ccco2)=CN1` (stereo not shown) [Compound 18e] the value was 51.4 ± 18.5%; for `O=C1CC(Cc2ccccc2)C(C(=O)N2CCOCC2)=CN1` (stereo not shown) [Compound 21], 117 ± 13%; for `Cn1c(CC2C=CN(c3ccccc3)C(=O)C2)cc2ccccc21` (stereo not shown) [Compound 23a], 67.6 ± 13.3%.
On the same count and under the same terms, for `Cn1c(CC2C=CN(c3ccccc3)C(=S)C2)cc2ccccc21` (stereo not shown) [Compound 23b] the value was 81.4 ± 14.9%.
Consider `Cn1c(CC2C=CCC(=O)N2c2ccccc2)cc2ccccc21` (stereo not shown) [Compound 24a], for which the activity at 10 µM worked out at 107 ± 14.2%.
Turning to `O=C1CC(Cc2nc3ccccc3o2)C=CN1c1ccccc1` (stereo not shown) [Compound 25a], the activity at 10 µM came out at 104 ± 1.5%.
Still for that read-out and setting: for `S=C1CC(Cc2nc3ccccc3o2)C=CN1c1ccccc1` (stereo not shown) [Compound 25b] the value was 88.9 ± 8.81%.

Still in this assay, the particulars now being: Homo sapiens, A-375; 48 hours of treatment.
With `S=C1NC=C(c2ccccc2)C(C#Cc2ccsc2)N1Cc1ccccc1` (stereo not shown) [Compound 2c], the 50% inhibitory concentration (IC50) was 59.3 ± 9.62 µM.
On the same count and under the same terms, for `S=C1CC(Cc2ccccc2)C(c2ccco2)=CN1` (stereo not shown) [Compound 18e] the value was 10.1 ± 0.75 µM.

Another assay concerns the target T1, tubulin (Sus scrofa, UniProt P02550+P02554).
T1 construct: purchased Cytoskeleton, Denver, CO, USA
Nature of the assay: Cell free tubulin polymerization assay (fluorescence-based). It counts as biochemical. The conditions noted are these: 3 µM. As to the method:
The tubulin polymerization process was evaluated using a tubulin (>99% pure) and fluorescence-based tubulin polymerization kit (Cytoskeleton, Denver, CO, USA). The effects of compounds 16b and 29 (at final concentrations of 1, 10, 50, 100 µM) on tubulin polymerization were evaluated in cell-free conditions. Paclitaxel (PTX) and vinblastine (VBL) (3 µM) were used as references, and DMSO (0.2%) was used as the vehicle control. This assay tracks the process of tubulin polymerization through an increase in fluorescence resulting from the addition of a fluorescence reporter to microtubules as polymerization occurs. After incubating the tested compounds at 37°C for 1 minute, the icy tubulin reaction mixture (2 mg/mL tubulin, 1.0 mM GTP, 15% glycerol in buffer containing 80 mM PIPES, 2.0 mM MgCl2, 0.5 mM EGTA, pH 6.9, and 10 µM fluorescent reporter) was added to the samples, which were then mixed and monitored using a spectrophotometric microplate reader (Infinite 200 Pro, Tecan) at 1-minute intervals for 90 minutes at 37°C (excitation: 360 nm, emission: 450 nm). The software installed on the plate reader was used to compute the maximum slope (Vmax) of the growth phase, measured in RFU/min, as outlined in the manufacturer's instructions. Each polymerization curve's Vmax was then standardized against the control curve's Vmax. The IC50 values were determined using an online tool (AAT Bioquest, Inc., Quest Graph™ IC50 Calculator ((v.1). Retrieved from https://www.aatbio.com/tools/IC50-calculator-v1, accessed on: 2024, May 6).
For the compound `CC(=O)O[C@H]1C(=O)[C@@]2(C)[C@H]([C@H](OC(=O)c3ccccc3)[C@]3(O)C[C@H](OC(=O)[C@H](O)[C@@H](NC(=O)c4ccccc4)c4ccccc4)C(C)=C1C3(C)C)[C@]1(OC(C)=O)CO[C@@H]1C[C@@H]2O` [PTX, Paclitaxel, reference compound], the “effect on tubulin polymerization” value is “reduced the duration of the nucleation phase and increased the Vmax”.
For `CC[C@]1(O)C[C@@H]2CN(CCc3c([nH]c4ccccc34)[C@@](C(=O)OC)(c3cc4c(cc3OC)N(C)[C@H]3[C@@](O)(C(=O)OC)[C@H](OC(C)=O)[C@]5(CC)C=CCN6CC[C@]43[C@@H]65)C2)C1` [VBL, vinblastine, reference compound], the “effect on tubulin polymerization” value is “suppressed tubulin polymerization, resulting in decreased Vmax and reduced final polymer mass of protein”.

The next assay deals with A375 cells. Nature of the assay: Live-cell imaging (time-lapse microscopy). It counts as cell-based. The conditions noted are these: 1 µM, positive control. As to the method:
For live-cell imaging, A375 cells were seeded into 96-well plates at a density of 2×10^3 cells per well and allowed to grow for 24 h before imaging. Next, the cell culture medium was carefully removed, and new medium containing 16b (at 2 µM and 10 µM) and 29 (at 5 µM and 10 µM) was added and the cell culture plate was placed in the imaging chamber of Agilent BioTek Lionheart FX automated microscope (Agilent Technologies, Inc., Santa Clara, CA, USA) equipped with a Plan Fluorite 20x/0.75 objective (Olympus, Nishi-Shinjuki, Tokyo, Japan), and a FLIR Blackfly BFLY-U3-23S6M camera (Teledyne FLIR, Wilsonville, OR, USA). The temperature in the imaging chamber was set to 37°C and CO2 level to 5%. The bright-field images were acquired every 5 minutes for 48 hours.
For the compound `COc1ccc(/C=C\c2cc(OC)c(OC)c(OC)c2)cc1O` [CA-4, combretastatin-4, reference compound], the “time-lapse observation of A375 cells” value is recorded as “caused the formation of characteristic protrusions, indicating changes in the organization of the cytoskeleton leading to apoptosis with typical apoptotic bodies”.
